The source made the active and inactive calls. The calls are words filed in the database; no cut-off is given here.
How the values were obtained:
[1] = test system: Lenvatinib-resistant Huh7/Len; test: Anticancer activity against human Lenvatinib-resistant Huh7/Len cells assessed as increase in m6A modification in coding region by MeRIP-m6A -sequencing analysis; type: functional, cell-based
[2] = test system: Lenvatinib-resistant Hep3B/Len; test: Antiproliferative activity against human Lenvatinib-resistant Hep3B/Len cells assessed as inhibition of cell viability at 5 uM after 72 hrs in presence of lenvatinib by CCK-8 assay; type: functional, cell-based
[3] = test system: Lenvatinib-resistant Huh7/Len; test: Antitumor activity against human Lenvatinib-resistant Huh7/Len cells xenografted in BALB/c nude mouse assessed as reduction in m6A level in tumor tissue at 1.5 mg/kg, ip 5 times per week for 3 weeks by immunohistochemistry analysis; type: functional, organism-based
[4] = test system: Lenvatinib-resistant Huh7/Len; test: Anticancer activity against human Lenvatinib-resistant Huh7/Len cells assessed as reduction in UBE3B protein expression at 2 uM by Western blot analysis; type: functional, cell-based
[5] = target: N6-adenosine-methyltransferase catalytic subunit (Homo sapiens) (UniProt Q86U44); test: Inhibition of METTL3 in human Lenvatinib-resistant Huh7/Len cells assessed as effect on LATS1 mRNA expression level at 2 uM incubated for 72 hrs by RT-PCR analysis; type: cell-based
N6-adenosine-methyltransferase catalytic subunit (Homo sapiens), sequence (Q86U44 whole entry): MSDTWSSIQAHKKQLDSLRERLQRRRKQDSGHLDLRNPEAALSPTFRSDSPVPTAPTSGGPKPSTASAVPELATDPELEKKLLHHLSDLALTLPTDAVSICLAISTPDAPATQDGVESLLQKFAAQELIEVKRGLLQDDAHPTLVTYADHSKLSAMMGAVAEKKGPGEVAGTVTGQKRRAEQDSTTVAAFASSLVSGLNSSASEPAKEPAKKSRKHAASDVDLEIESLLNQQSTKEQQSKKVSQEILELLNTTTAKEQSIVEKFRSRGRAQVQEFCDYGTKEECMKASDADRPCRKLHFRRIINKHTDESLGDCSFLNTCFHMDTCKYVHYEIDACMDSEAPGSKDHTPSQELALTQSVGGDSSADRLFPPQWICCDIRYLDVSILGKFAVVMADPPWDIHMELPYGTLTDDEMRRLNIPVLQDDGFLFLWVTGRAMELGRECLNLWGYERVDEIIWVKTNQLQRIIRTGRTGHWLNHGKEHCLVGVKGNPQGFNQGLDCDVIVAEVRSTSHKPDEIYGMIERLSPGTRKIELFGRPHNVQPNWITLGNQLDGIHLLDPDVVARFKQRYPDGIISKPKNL

Huh-7 = test: Effect on METTL3 protein expression in human Huh-7 cells at 2 uM incubated for 72 hrs by Western blot analysis; type: functional, cell-based
[6] = target: N6-adenosine-methyltransferase catalytic subunit (Homo sapiens) (UniProt Q86U44); test: Inhibition of METTL3 in human Lenvatinib-resistant Huh7/Len cells assessed as effect on MMP3 mRNA expression level at 2 uM incubated for 72 hrs by RT-PCR analysis; type: cell-based
[7] = target: N6-adenosine-methyltransferase catalytic subunit (Homo sapiens) (UniProt Q86U44); test: Inhibition of METTL3 in human Lenvatinib-resistant Huh7/Len cells assessed as effect on ADAMTS9 mRNA expression level at 2 uM incubated for 72 hrs by RT-PCR analysis; type: cell-based
[8] = test system: Lenvatinib-resistant Huh7/Len; test: Antiproliferative activity against human Lenvatinib-resistant Huh7/Len cells assessed as inhibition of cell viability at 5 uM uM after 72 hrs in presence of lenvatinib by CCK-8 assay; type: functional, cell-based
[9] = test system: Lenvatinib-resistant Hep3B/Len; test: Inhibition of cell migration in human Lenvatinib-resistant Hep3B/Len cells at 5 uM incubated for 48 hrs by transwell assay; type: functional, cell-based
[10] = target: N6-adenosine-methyltransferase catalytic subunit (Homo sapiens) (UniProt Q86U44); test: Inhibition of METTL3 in human Lenvatinib-resistant Huh7/Len cells assessed as effect on AKT1 mRNA expression level at 2 uM incubated for 72 hrs by RT-PCR analysis; type: cell-based
[11] = target: N6-adenosine-methyltransferase catalytic subunit (Homo sapiens) (UniProt Q86U44); test: Inhibition of METTL3 in human Lenvatinib-resistant Huh7/Len cells assessed as effect on CRB3 mRNA expression level at 2 uM incubated for 72 hrs by RT-PCR analysis; type: cell-based
[12] = target: N6-adenosine-methyltransferase catalytic subunit (Homo sapiens) (UniProt Q86U44); test: Inhibition of METTL3 in human Huh-7 cells assessed as down regulation of m6A RNA level at 2 uM incubated for 72 hrs by colorimetric analysis; type: cell-based
[13] = test system: Lenvatinib-resistant Huh7/Len; test: Antitumor activity against human Lenvatinib-resistant Huh7/Len cells xenografted in BALB/c nude mouse assessed as tumor growth inhibition at 1.5 mg/kg, ip cotreated with lenvatinib 5 times per week for 3 weeks; type: functional, organism-based
[14] = test system: Lenvatinib-resistant Huh7/Len; test: Anticancer activity against human Lenvatinib-resistant Huh7/Len cells assessed as increase in m6A modification in terminator region by MeRIP-m6A -sequencing analysis; type: functional, cell-based
[15] = test system: Lenvatinib-resistant Huh7/Len; test: Antiproliferative activity against human Lenvatinib-resistant Huh7/Len cells assessed as inhibition of clone formation ability at 5 uM preincubated for 72 hrs and measured after 7 to 10 days in presence of lenvatinib by crystal violet staining based assay; type: functional, cell-based; settings: time 10-13 day
[16] = target: N6-adenosine-methyltransferase catalytic subunit (Homo sapiens) (UniProt Q86U44); test: Inhibition of METTL3 in human Lenvatinib-resistant Huh7/Len cells assessed as effect on MMP13 mRNA expression level at 2 uM incubated for 72 hrs by RT-PCR analysis; type: cell-based
[17] = Toxicity in BALB/c nude mouse PDX model xenografted with human Lenvatinib-resistant HCC/Len cells assessed as changes in body weight at 1.5 mg/kg, ip cotreated with lenvatinib 5 times per week for 3 weeks; type: organism-based; settings: in vivo, 504 h
[18] = test system: Lenvatinib-resistant Huh7/Len; test: Inhibition of cell migration in human Lenvatinib-resistant Huh7/Len cells at 5 uM incubated for 48 hrs by transwell assay; type: functional, cell-based
[19] = Toxicity in BALB/c nude mouse xenografted with human Lenvatinib-resistant Huh7/Len cells assessed as changes in body weight at 1.5 mg/kg, ip cotreated with lenvatinib 5 times per week for 3 weeks; type: organism-based; settings: in vivo, 504 h
[20] = test system: Lenvatinib-resistant Huh7/Len; test: Anticancer activity against human Lenvatinib-resistant Huh7/Len cells assessed as increase in m6A modification in promoter region by MeRIP-m6A -sequencing analysis; type: functional, cell-based
[21] = Toxicity in BALB/c nude mouse xenografted with human Lenvatinib-resistant Huh7/Len cells assessed as changes in body weight at 1.5 mg/kg, ip administered 5 times per week for 3 weeks; type: organism-based; settings: in vivo, 504 h
[22] = test system: Lenvatinib-resistant Huh7/Len; test: Antitumor activity against human Lenvatinib-resistant Huh7/Len cells xenografted in BALB/c nude mouse assessed as reduction in m6A RNA level at 1.5 mg/kg, ip 5 times per week for 3 weeks by Dot blot assay; type: functional, organism-based
[23] = test system: Lenvatinib-resistant Huh7/Len; test: Induction of apoptosis in human Lenvatinib-resistant Huh7/Len cells xenografted in BALB/c nude mouse assessed as apoptotic cells in tumor tissue at 1.5 mg/kg, ip cotreated with lenvatinib 5 times per week for 3 weeks by TUNEL assay; type: functional, organism-based
[24] = target: N6-adenosine-methyltransferase catalytic subunit (Homo sapiens) (UniProt Q86U44); test: Inhibition of METTL3 in human Lenvatinib-resistant Huh7/Len cells assessed as effect on TIBIM6 mRNA expression level at 2 uM incubated for 72 hrs by RT-PCR analysis; type: cell-based
[25] = test system: Lenvatinib-resistant Huh7/Len; test: Anticancer activity against human Lenvatinib-resistant Huh7/Len cells assessed as increase in GGA motif at m6A site by MeRIP-m6A -sequencing analysis; type: functional, cell-based
[26] = target: N6-adenosine-methyltransferase catalytic subunit (Homo sapiens) (UniProt Q86U44); test: Inhibition of METTL3 in human Huh-7 cells assessed as down regulation of m6A RNA level at 2 uM incubated for 72 hrs by Dot blot assay; type: cell-based
[27] = test system: Lenvatinib-resistant Huh7/Len; test: Inhibition of cell migration in human Lenvatinib-resistant Huh7/Len cells at 5 uM incubated for 48 hrs in presence of lenvatinib by transwell assay relative to control; type: functional
[28] = target: N6-adenosine-methyltransferase catalytic subunit (Homo sapiens) (UniProt Q86U44); test: Inhibition of METTL3 in human Lenvatinib-resistant Huh7/Len cells assessed as effect on HNF4A mRNA expression level at 2 uM incubated for 72 hrs by RT-PCR analysis; type: cell-based
[29] = target: N6-adenosine-methyltransferase catalytic subunit (Homo sapiens) (UniProt Q86U44); test: Inhibition of METTL3 in human Huh-7 cells assessed as down regulation of m6A RNA level incubated for 72 hrs by Dot blot assay; type: cell-based; settings: dose 5-10 µM
[30] = test system: Lenvatinib-resistant Hep3B/Len; test: Inhibition of cell migration in human Lenvatinib-resistant Hep3B/Len cells at 5 uM incubated for 48 hrs in presence of lenvatinib by transwell assay relative to control; type: functional
[31] = test system: Lenvatinib-resistant Huh7/Len; test: Antiproliferative activity against human Lenvatinib-resistant Huh7/Len cells assessed as inhibition of clone formation ability at 5 uM preincubated for 72 hrs and measured after 7 to 10 days by crystal violet staining based assay; type: functional, cell-based; settings: time 10-13 day
[32] = test system: Lenvatinib-resistant Huh7/Len; test: Antitumor activity against human Lenvatinib-resistant Huh7/Len cells xenografted in BALB/c nude mouse assessed as reduction in Ki-67 protein expression in tumor tissue at 1.5 mg/kg, ip cotreated with lenvatinib 5 times per week for 3 weeks by immunohistochemistry analysis relative to control; type: functional; set-up: scale not given: the % may be the effect or the level left

**Q.** What does the source list for `CN1[C@@H](CC(=O)c2ccccc2)CCC[C@H]1C[C@H](O)c1ccccc1` [LOBELINE]?
**A.** Activity [1]: Active; inhibition [2]: Active; Activity [3]: Active; Activity [4]: Active; inhibition [5]: Active; Activity (Huh-7): inactive; inhibition [6]: Active; inhibition [7]: Active; inhibition [8]: Active; inhibition [9]: inactive; inhibition [10]: Active; inhibition [11]: Active; inhibition [12]: 11%; TGI [13]: Active; Activity [14]: Active; inhibition [15]: inactive; inhibition [16]: Active; Activity [17]: Non-Toxic; inhibition [18]: inactive; Activity [19]: Non-Toxic; Activity [20]: Active; Activity [21]: Non-Toxic; Activity [22]: inactive; Activity [23]: Active; inhibition [24]: Active; Activity [25]: Active; inhibition [26]: Active; inhibition at 5 µM [27]: 42%; inhibition [28]: Active; inhibition [29]: Dose-Dependent Effect; inhibition at 5 µM [30]: 42%; inhibition [31]: inactive; Activity [32]: 30%

— ChEMBL document CHEMBL5584314, “Identification of an m6A Natural Inhibitor, Lobeline, That Reverses Lenvatinib Resistance in Hepatocellular Tumors” (J Nat Prod, 2024)
